Measured values as given in patent US20170049716A1, “NITISINONE DOSING REGIMENS FOR THE TREATMENT OF ALKAPTONURIA” (Swedish Orphan Biovitrum International AB, priority 2014, published 2017).

How the values were obtained:
tyrosine = details: 2 mg daily, 20 patients, no diet restrictions, 3-year study; cited from earlier work
patients with AKU = details: 2 mg/day, 36 months; cited from earlier work
patients with HT-1 = details: cited from earlier work
homogentisic acid (HGA) [1] = details: 2 mg/day, 36 months, AKU patients; cited from earlier work
homogentisic acid (HGA) [2] = assay: Serum HGA (s-HGA) 24-hour profile, dose-response study in patients with AKU; type: in vivo, human; details: for Patients with no quantifiable serum HGA concentration in any sample over the 24-hour dosage interval: group of 8 patients, LLOQ 3.1 μmol/L
Method: A randomized, open-label, parallel-group dose-response study with a no-treatment control group was performed. Patients with AKU were randomized to receive either 1 mg, 2 mg, 4 mg or 8 mg nitisinone once daily (oral administration) or no treatment (control). Forty patients were randomized, equally distributed amongst the five groups (8 patients per group). Nitisinone was administered as an oral suspension containing 4 mg/mL. The following dose volumes were administered once daily, in the morning: Measurements of serum HGA (s-HGA) and tyrosine (s-Tyr) concentrations were performed at weeks 0, 2 and 4. At all visits a full 24-hour profile was determined at the following time-points: pre-dose (immediately after breakfast) and 0.5, 1,2, 3, 4, 6, 8, 10, 12, 15, 18,24 hours post-dose. The concentrations of HGA and tyrosine in the serum were measured by liquid chromatography tandem mass spectrometry (LCMSMS). The lower limit of quantification (LLOQ) for HGA was 3.1 μmol/L. Maximum and daily average serum concentrations of HGA and tyrosine were determined. The daily average concentrations were determined by dividing the area under the concentration vs. time curves, calculated by means of the trapezoidal rule, by 24.

homogentisic acid (HGA) [3] = assay: Urinary excretion of HGA over 24 hours (u-HGA24), dose-response study in patients with AKU; type: in vivo, human; details: for Relative decrease in u-HGA24, max / Relative decrease in u-HGA24, mean / Relative decrease in u-HGA24, median / Relative decrease in u-HGA24, min: baseline to week 4, N = 8
Method: A randomized, open-label, parallel-group dose-response study with a no-treatment control group was performed. Patients with AKU were randomized to receive either 1 mg, 2 mg, 4 mg or 8 mg nitisinone once daily (oral administration) or no treatment (control). Forty patients were randomized, equally distributed amongst the five groups (8 patients per group). Nitisinone was administered as an oral suspension containing 4 mg/mL. The following dose volumes were administered once daily, in the morning: Urinary excretion of HGA over a 24-hour period (u-HGA24) was assessed at weeks 0, 2 and 4. Urine was collected into 2.5-L bottles containing 30 mL of 5N H2SO4. The exact length of the collection interval and the volume of the collected urine were recorded. The concentration of HGA in the urine was measured by liquid chromatography tandem mass spectrometry (LCMSMS). The 24-hour excretion of HGA was calculated by multiplying the concentration with the volume of the collected urine, and correcting for any deviation from a 24-hour collection period. (There were no reports of missed samples within the collection interval.)

[4] = 1 mg once daily oral, Week 0 (baseline), N = 8
[5] = 1 mg once daily oral, Week 4, N = 8
[6] = 2 mg once daily oral, Week 0 (baseline), N = 8
[7] = 2 mg once daily oral, Week 4, N = 8
[8] = 4 mg once daily oral, Week 0 (baseline), N = 8
[9] = 4 mg once daily oral, Week 4, N = 8
[10] = 8 mg once daily oral, Week 0 (baseline), N = 8
[11] = 8 mg once daily oral, Week 4, N = 8

O=C1CCCC(=O)C1C(=O)c1ccc(C(F)(F)F)cc1[N+](=O)[O-] [nitisinone, 2-[2-nitro-4-(trifluoromethyl)benzoyl]-1,3-cyclohexanedione]
Tyrosine levels, average (tyrosine): 800 µM
Tyrosine levels, range (tyrosine): 332 to 1528 µM
Effect on primary efficacy variable, hip rotation (patients with AKU): failed to show an effect
IQ of treated children versus unaffected siblings (patients with HT-1; children treated with nitisinone (Bendadi et al.)): considerably lower
Cognitive impairment causing schooling difficulties, patients affected (patients with HT-1; school-age patients with HT-1 treated with nitisinone (Masurel-Paulet et al.)): eight out of 23
Reduction of urinary excretion on average, compared to pre-treatment levels (homogentisic acid (HGA) [1]): about 95%
Daily average serum concentration of HGA, max (homogentisic acid (HGA) [2]; [4]): 44.1 µmol/L
Daily average serum concentration of HGA, mean (homogentisic acid (HGA) [2]; [4]): 34.2 µmol/L
Daily average serum concentration of HGA, median (homogentisic acid (HGA) [2]; [4]): 33.0 µmol/L
Daily average serum concentration of HGA, min (homogentisic acid (HGA) [2]; [4]): 25.5 µmol/L
Daily average serum concentration of HGA, max (homogentisic acid (HGA) [2]; [5]): 7.3 µmol/L
Daily average serum concentration of HGA, mean (homogentisic acid (HGA) [2]; [5]): 4.1 µmol/L
Daily average serum concentration of HGA, median (homogentisic acid (HGA) [2]; [5]): 3.9 µmol/L
Daily average serum concentration of HGA, min (homogentisic acid (HGA) [2]; [5]): 3.1 µmol/L
Daily average serum concentration of HGA, max (homogentisic acid (HGA) [2]; [6]): 59.1 µmol/L
Daily average serum concentration of HGA, mean (homogentisic acid (HGA) [2]; [6]): 36.6 µmol/L
Daily average serum concentration of HGA, median (homogentisic acid (HGA) [2]; [6]): 34.2 µmol/L
Daily average serum concentration of HGA, min (homogentisic acid (HGA) [2]; [6]): 25.1 µmol/L
Daily average serum concentration of HGA, max (homogentisic acid (HGA) [2]; [7]): 5.8 µmol/L
Daily average serum concentration of HGA, median (homogentisic acid (HGA) [2]; [7]): <3.1 µmol/L
Daily average serum concentration of HGA, min (homogentisic acid (HGA) [2]; [7]): <3.1 µmol/L
Patients with no quantifiable serum HGA concentration in any sample over the 24-hour dosage interval (homogentisic acid (HGA) [2]; 2 mg): 3
Daily average serum concentration of HGA, max (homogentisic acid (HGA) [2]; [8]): 49.9 µmol/L
Daily average serum concentration of HGA, mean (homogentisic acid (HGA) [2]; [8]): 38.5 µmol/L
Daily average serum concentration of HGA, median (homogentisic acid (HGA) [2]; [8]): 37.7 µmol/L
Daily average serum concentration of HGA, min (homogentisic acid (HGA) [2]; [8]): 28.9 µmol/L
Daily average serum concentration of HGA, max (homogentisic acid (HGA) [2]; [9]): <3.1 µmol/L
Daily average serum concentration of HGA, median (homogentisic acid (HGA) [2]; [9]): <3.1 µmol/L
Daily average serum concentration of HGA, min (homogentisic acid (HGA) [2]; [9]): <3.1 µmol/L
Patients with no quantifiable serum HGA concentration in any sample over the 24-hour dosage interval (homogentisic acid (HGA) [2]; 4 mg): 4
Daily average serum concentration of HGA, max (homogentisic acid (HGA) [2]; [10]): 47.7 µmol/L
Daily average serum concentration of HGA, mean (homogentisic acid (HGA) [2]; [10]): 36.6 µmol/L
Daily average serum concentration of HGA, median (homogentisic acid (HGA) [2]; [10]): 38.6 µmol/L
Daily average serum concentration of HGA, min (homogentisic acid (HGA) [2]; [10]): 25.2 µmol/L
Daily average serum concentration of HGA, median (homogentisic acid (HGA) [2]; [11]): <3.1 µmol/L
Daily average serum concentration of HGA, min (homogentisic acid (HGA) [2]; [11]): <3.1 µmol/L
Patients with no quantifiable serum HGA concentration in any sample over the 24-hour dosage interval (homogentisic acid (HGA) [2]; 8 mg): 7
u-HGA24, max (homogentisic acid (HGA) [3]; [4]): 69502.9 μmol/24h
u-HGA24, mean (homogentisic acid (HGA) [3]; [4]): 36757.0 μmol/24h
u-HGA24, median (homogentisic acid (HGA) [3]; [4]): 34034.4 μmol/24h
u-HGA24, min (homogentisic acid (HGA) [3]; [4]): 20743.4 μmol/24h
u-HGA24, max (homogentisic acid (HGA) [3]; [5]): 6752.8 μmol/24h
u-HGA24, mean (homogentisic acid (HGA) [3]; [5]): 3931.0 μmol/24h
u-HGA24, median (homogentisic acid (HGA) [3]; [5]): 3415.6 μmol/24h
u-HGA24, min (homogentisic acid (HGA) [3]; [5]): 1847.6 μmol/24h
Relative decrease in u-HGA24, max (homogentisic acid (HGA) [3]; 1 mg once daily oral): 91.05%
Relative decrease in u-HGA24, mean (homogentisic acid (HGA) [3]; 1 mg once daily oral): 88.72%
Relative decrease in u-HGA24, median (homogentisic acid (HGA) [3]; 1 mg once daily oral): 87.99%
u-HGA24, max (homogentisic acid (HGA) [3]; [6]): 40747.2 μmol/24h
u-HGA24, mean (homogentisic acid (HGA) [3]; [6]): 31439.8 μmol/24h
u-HGA24, median (homogentisic acid (HGA) [3]; [6]): 31754.7 μmol/24h
u-HGA24, min (homogentisic acid (HGA) [3]; [6]): 19994.2 μmol/24h
u-HGA24, max (homogentisic acid (HGA) [3]; [7]): 3484.1 μmol/24h
u-HGA24, mean (homogentisic acid (HGA) [3]; [7]): 1602.5 μmol/24h
u-HGA24, median (homogentisic acid (HGA) [3]; [7]): 1515.6 μmol/24h
u-HGA24, min (homogentisic acid (HGA) [3]; [7]): 627.0 μmol/24h
Relative decrease in u-HGA24, max (homogentisic acid (HGA) [3]; 2 mg once daily oral): 96.86%
Relative decrease in u-HGA24, mean (homogentisic acid (HGA) [3]; 2 mg once daily oral): 94.78%
Relative decrease in u-HGA24, median (homogentisic acid (HGA) [3]; 2 mg once daily oral): 95.64%
Relative decrease in u-HGA24, min (homogentisic acid (HGA) [3]; 2 mg once daily oral): 89.08%
u-HGA24 (homogentisic acid (HGA) [3]; 2 mg or higher per day, with one exception): less than 2000 μmol
u-HGA24, max (homogentisic acid (HGA) [3]; [8]): 55393.9 μmol/24h
u-HGA24, mean (homogentisic acid (HGA) [3]; [8]): 35453.4 μmol/24h
u-HGA24, median (homogentisic acid (HGA) [3]; [8]): 31502.7 μmol/24h
u-HGA24, min (homogentisic acid (HGA) [3]; [8]): 14442.9 μmol/24h
u-HGA24, max (homogentisic acid (HGA) [3]; [9]): 1478.4 μmol/24h
u-HGA24, mean (homogentisic acid (HGA) [3]; [9]): 733.8 μmol/24h
u-HGA24, median (homogentisic acid (HGA) [3]; [9]): 790.5 μmol/24h
u-HGA24, min (homogentisic acid (HGA) [3]; [9]): 164.2 μmol/24h
Relative decrease in u-HGA24, max (homogentisic acid (HGA) [3]; 4 mg once daily oral): 99.41%
Relative decrease in u-HGA24, mean (homogentisic acid (HGA) [3]; 4 mg once daily oral): 98.15%
Relative decrease in u-HGA24, median (homogentisic acid (HGA) [3]; 4 mg once daily oral): 98.19%
Relative decrease in u-HGA24, min (homogentisic acid (HGA) [3]; 4 mg once daily oral): 96.74%
u-HGA24, max (homogentisic acid (HGA) [3]; [10]): 32896.6 μmol/24h
u-HGA24, mean (homogentisic acid (HGA) [3]; [10]): 27353.5 μmol/24h
u-HGA24, median (homogentisic acid (HGA) [3]; [10]): 28728.7 μmol/24h
u-HGA24, min (homogentisic acid (HGA) [3]; [10]): 17075.1 μmol/24h
u-HGA24, max (homogentisic acid (HGA) [3]; [11]): 223.0 μmol/24h
u-HGA24, mean (homogentisic acid (HGA) [3]; [11]): 146.3 μmol/24h
u-HGA24, median (homogentisic acid (HGA) [3]; [11]): 140.4 μmol/24h
u-HGA24, min (homogentisic acid (HGA) [3]; [11]): 83.1 μmol/24h
Relative decrease in u-HGA24, max (homogentisic acid (HGA) [3]; 8 mg once daily oral): 99.70%
Relative decrease in u-HGA24, mean (homogentisic acid (HGA) [3]; 8 mg once daily oral): 99.41%
Relative decrease in u-HGA24, median (homogentisic acid (HGA) [3]; 8 mg once daily oral): 99.52%
Relative decrease in u-HGA24, min (homogentisic acid (HGA) [3]; 8 mg once daily oral): 98.69%
Decrease of urinary excretion of HGA (up to) (homogentisic acid (HGA) [3]; 8 mg per day (highest dose)): > 99%
Suppression of the formation of HGA, estimated (homogentisic acid (HGA) [3]; 10 mg per day, estimated): almost completely
Decrease of u-HGA in a majority of patients, estimated by extrapolation (homogentisic acid (HGA) [3]; 15 mg per day, extrapolation): about 99.9%
Suppression of the formation of HGA (homogentisic acid (HGA) [3]; considerably higher doses than previously used in alkaptonuria): more than 99%
u-HGA24 of one patient (homogentisic acid (HGA) [3]; one patient on 2 mg, week 4): 3484 µmol
